Assay [1] concerns the target T1, COX-2 (Homo sapiens, UniProt P35354).
T1 construct: endogenous in cells; host or cells: fresh heparinized human whole blood from volunteers, induced with LPS
T1 sequence (P35354 18-604): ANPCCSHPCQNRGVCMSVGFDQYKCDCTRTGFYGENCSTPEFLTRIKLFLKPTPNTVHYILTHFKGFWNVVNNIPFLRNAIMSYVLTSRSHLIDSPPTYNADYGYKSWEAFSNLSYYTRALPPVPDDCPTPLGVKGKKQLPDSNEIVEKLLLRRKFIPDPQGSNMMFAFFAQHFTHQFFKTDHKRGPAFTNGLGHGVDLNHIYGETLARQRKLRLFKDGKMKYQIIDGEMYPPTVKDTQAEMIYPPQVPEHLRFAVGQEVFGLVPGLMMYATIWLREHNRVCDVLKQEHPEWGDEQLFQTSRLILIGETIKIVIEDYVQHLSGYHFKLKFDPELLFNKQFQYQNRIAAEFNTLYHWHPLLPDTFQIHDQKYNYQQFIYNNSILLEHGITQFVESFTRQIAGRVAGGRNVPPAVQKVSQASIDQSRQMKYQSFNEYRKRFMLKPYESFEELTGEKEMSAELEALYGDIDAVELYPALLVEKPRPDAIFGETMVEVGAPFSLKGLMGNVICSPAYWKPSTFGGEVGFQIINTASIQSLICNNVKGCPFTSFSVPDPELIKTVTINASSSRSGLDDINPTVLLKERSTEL
Briefly: Human whole blood assay, COX-2 (LPS-induced PGE2 production). It is filed as cell-based. The note with it: 24 hours at 37°C, read-out: COX-2 (IC50 µM) HWB. From the text: (§1) As well, platelets in whole blood contain a large amount of the COX-1 enzyme. Immediately following blood clotting, platelets are activated through a thrombin-mediated mechanism. This reaction results in the production of thromboxane B2 (TxB2) via activation of COX-1. Thus, the effect of test compounds on TxB2 levels following blood clotting can be examined and used as an index for COX-1 activity. Therefore, the degree of selectivity by the test compound can be determined by measuring the levels of PGE2 after LPS induction (COX-2) and TxB2 following blood clotting (COX-1) in the same assay.
Fresh blood is collected in heparinized tubes by venipuncture from both male and female volunteers. The subjects have no apparent inflammatory conditions and have not taken any NSAIDs for at least 7 days prior to blood collection. Plasma is immediately obtained from a 2mL blood aliquot to use as blank (basal levels of PGE2).

Assay [2] concerns the target T1, COX-2. Kind of assay: Whole cell assay for COX-2 using CHO transfected cell line (CHO [hCOX-2]). The following applies: CHO[hCOX-2] cells, 10 µM AA, PGE2 synthesis. The class given is cell-based. The method, then: Chinese hamster ovary (CHO) cell lines which have been stably transfected with an eukaryotic expression vector pCDNAIII containing either the human COX-1 or COX-2 cDNA's are used for the assay. These cell lines are referred to as CHO [hCOX-1] and CHO [hCOX-2], respectively. […] Cells (0.3 x 10^6 cells in 200 µl) are preincubated with 3 µl of the test drug or DMSO vehicle for 15 min at 37°C. […] Cells are then challenged in the presence or absence of drug with the AA/HBSS solution to yield a final concentration of 0.5 µM AA in the CHO[hCOX-1] assay and a final concentration of 10 µM AA in the CHO[hCOX-2] assay. […] The samples are centrifuged at 300 x g at 4°C for 10 min, and an aliquot of the clarified supernatant is appropriately diluted for the determination of PGE2 levels using an enzyme-linked immunoassay for PGE2 (Correlate PGE2 enzyme immunoassay kit, Assay Designs, Inc.). Cyclooxygenase activity in the absence of test compounds is determined as the difference in PGE2 levels of cells challenged with arachidonic acid versus the PGE2 levels in cells mock-challenged with ethanol vehicle. Inhibition of PGE2 synthesis by test compounds is calculated as a percentage of the activity in the presence of drug versus the activity in the positive control samples.
(§2) In the assay, inhibition is determined by measuring the amount of prostaglandin E2 (PGE2) synthesized in the presence of arachidonic acid, cyclooxygenase-1 or cyclooxygenase-2 and a putative inhibitor.

Assay [3] has as its target T2, COX-1 (Homo sapiens, UniProt P23219). Kind of assay: Assay of COX-1 activity from U937 cell microsomes. The class given is biochemical. Also on record: endogenous in cells; host or cells: U937 cells, 100,000 x g microsomal pellet. The following applies: PGE2, read-out: COX-1 (IC50 µM) U-937. The protocol: U 937 cells are pelleted by centrifugation at 500 x g for 5 min and washed once with phosphate-buffered saline and repelleted. Cells are resuspended in homogenization buffer consisting of 0.1 M Tris-HCl, pH 7.4, 10 mM EDTA, 2 µg/ml leupeptin, 2 µg/ml soybean trypsin inhibitor, 2 µg/ml aprotinin and 1 mM phenyl methyl sulfonyl fluoride. The cell suspension is sonicated 4 times for 10 sec and is centrifuged at 10,000 x g for 10 min at 4° C. The supernatant is centrifuged at 100,000 x g for 1 hr at 4 °C. The 100,000 x g microsomal pellet is resuspended in 0.1 M Tris-HCl, pH 7.4, 10 mM EDTA to approximately 7 mg protein/ml and stored at -80° C.
Assays are performed in duplicate in a final volume of 250 µl. Initially, 5 µl of DMSO vehicle or drug in DMSO are added to 20 µl of 0.1 M Tris-HCl buffer, pH 7.4 containing 10 mM EDTA in wells of a 96-deepwell polypropylene titre plate. 200 µl of the microsomal preparation are then added and pre-incubated for 15 min at room temperature before addition of 25 µl of […] arachidonic acid in […] Tris-HCl and 10 mM EDTA, pH 7.4. Samples are incubated for 40 min at room temperature and the reaction is stopped by the addition of 25 µl of 1 N HCl. Samples are neutralized with 25 µl of 1 N NaOH prior to quantitation of PGE2 content by radioimmunoassay (Dupont-NEN or Amersham assay kits). Cyclooxygenase activity is defined as the difference between PGE2 levels in samples incubated in the presence of arachidonic acid and ethanol vehicle.
as §2

Assay [4] has as its target T2, COX-1. Briefly: Human whole blood assay, COX-1 (clotting-induced TxB2 production). It is filed as cell-based. Also on record: endogenous in cells; host or cells: platelets in fresh human whole blood left to clot. The note with it: 1 hour at 37°C, read-out: COX-1 (IC50 µM) HWB. The protocol:
as §1, with “Human whole blood provides a protein and cell-rich milieu appropriate for the study of biochemical efficacy of anti-inflammatory compounds such as selective COX-2 inhibitors. […] This is consistent with the observation that COX-2 inhibitors have no effect on PGE2 production in normal blood. These inhibitors are active only after incubation of human whole blood with LPS, which induces COX-2. This assay can be used to evaluate the inhibitory effect of selective COX-2 inhibitors on PGE2 production. As” for “As”
Fresh blood is collected into vacutainers containing no anticoagulants. Aliquots of 500µL are immediately transferred to siliconized microcentrifuge tubes preloaded with 2µL of either DMSO or a test compound at final concentrations varying from 10nM to 30µM. […]

For twelve molecules, IC50 results are on record in patent publication EP0975604B1, “PYRIDAZINONES AS INHIBITORS OF CYCLOOXYGENASE-2” (MERCK FROSST CANADA & CO., priority 1997, dated 1998).

The IC50 is the midpoint of a concentration-inhibition curve.

Molecules are shown by their SMILES.

T2 sequence (P23219 24-599): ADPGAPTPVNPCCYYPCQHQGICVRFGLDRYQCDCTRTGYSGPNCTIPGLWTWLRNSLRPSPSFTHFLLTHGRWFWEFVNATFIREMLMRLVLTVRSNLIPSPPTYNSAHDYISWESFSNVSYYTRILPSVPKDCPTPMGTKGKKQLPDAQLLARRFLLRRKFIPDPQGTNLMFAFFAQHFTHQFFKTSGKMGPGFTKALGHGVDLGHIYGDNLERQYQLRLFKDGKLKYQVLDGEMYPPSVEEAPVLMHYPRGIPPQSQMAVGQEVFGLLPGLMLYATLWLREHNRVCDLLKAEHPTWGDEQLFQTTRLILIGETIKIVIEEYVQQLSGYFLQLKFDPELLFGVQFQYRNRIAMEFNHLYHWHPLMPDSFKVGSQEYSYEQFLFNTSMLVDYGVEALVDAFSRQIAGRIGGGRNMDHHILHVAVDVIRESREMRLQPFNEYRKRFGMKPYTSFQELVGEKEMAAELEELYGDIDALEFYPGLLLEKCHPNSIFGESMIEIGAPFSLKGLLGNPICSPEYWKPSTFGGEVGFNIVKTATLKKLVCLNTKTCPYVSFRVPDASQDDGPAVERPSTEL

In the case of `CS(=O)(=O)c1ccc(-c2cnn(-c3ccccc3)c(=O)c2-c2ccccc2)cc1` [Example 1, 5-(4-Methylsulfonyl)phenyl-2-phenyl-4-phenyl-2H-pyridazin-3-one], the IC50 at COX-2 [1] was 4.7 µM; on COX-2 [2], 0.08 µM.

Take `Cn1ncc(-c2ccc(S(C)(=O)=O)cc2)c(-c2ccccc2)c1=O` [Example 2, 2-Methyl-5-(4-methylsulfonyl)phenyl-4-phenyl-2H-pyridazin-3-one]: the half-maximal inhibitory concentration (IC50) at COX-2 [1] is 21 µM; against COX-2 [2], 0.7 µM.

Take `CS(=O)(=O)c1ccc(-c2cnn(CC3CC3)c(=O)c2-c2ccccc2)cc1` [Example 3, 2-Cyclopropylmethyl-5-(4-methylsulfonyl)phenyl-4-phenyl-2H-pyridazin-3-one]: the IC50 on COX-2 [1] was 1.3 µM; against COX-2 [2] it was 0.07 µM; at COX-1 [3], > 10 µM.

Regarding `CS(=O)(=O)c1ccc(-c2cnn(CC(F)(F)F)c(=O)c2-c2ccccc2)cc1` [Example 4, 5-(4-Methylsulfonyl)phenyl-4-phenyl-2-(2,2,2-trifluoroethyl)-2H-pyridazin-3-one], the IC50 at COX-2 [1] is 11.1 µM; on COX-2 [2], 0.5 µM; on COX-1 [3] it was > 10 µM.

As for `CS(=O)(=O)c1ccc(-c2cnn(Cc3ccccc3)c(=O)c2-c2ccccc2)cc1` [Example 5, 2-Benzyl-5-(4-methylsulfonyl)phenyl-4-phenyl-2H-pyridazin-3-one], the values for the half-inhibitory concentration (IC50) on COX-1 [4] and at COX-1 [3] were > 50 µM and > 10 µM, respectively.

Regarding `CC(C)n1ncc(-c2ccc(S(C)(=O)=O)cc2)c(-c2ccccc2)c1=O` [Example 6, 2-Isopropyl-5-(4-methylsulfonyl)phenyl-4-phenyl-2H-pyridazin-3-one], the values for the IC50 at COX-2 [1], on COX-2 [2] and on COX-1 [3] were 2.6 µM, 0.6 µM and > 10 µM, respectively.

Turning to `CS(=O)(=O)c1ccc(-c2cnn(CC3CC3)c(=O)c2-c2ccc(F)c(F)c2)cc1` [Example 7, 2-Cyclopropylmethyl-4-(3,4-difluorophenyl)-5-(4-methylsulfonyl)phenyl-2H-pyridazin-3-one], the IC50 on COX-2 [1] is 3.2 µM; against COX-2 [2] it was 0.16 µM; on COX-1 [3], > 10 µM.

For the molecule `CS(=O)(=O)c1ccc(-c2cnn(Cc3ccccn3)c(=O)c2-c2ccccc2)cc1` [Example 8, 5-(4-Methylsulfonyl)phenyl-4-phenyl-2-(2-pyridylmethyl)-2H-pyridazin-3-one], the half-maximal inhibitory concentration (IC50) on COX-2 [1] was > 33 µM; against COX-2 [2], ~2 µM; on COX-1 [3], > 10 µM.

Turning to `CS(=O)(=O)c1ccc(-c2cnn(Cc3ccccc3)c(=O)c2-c2ccc(F)c(F)c2)cc1` [Example 9, 2-Benzyl-4-(3,4-difluorophenyl)-5-(4-methylsulfonyl)phenyl-2H-pyridazin-3-one], the values for the 50% inhibitory concentration (IC50) at COX-2 [1], against COX-2 [2] and at COX-1 [3] were 1.9 µM, 0.04 µM and 3 to 10 µM, respectively.

As to `CS(=O)(=O)c1ccc(-c2cnn(Cc3ccc(F)cc3)c(=O)c2-c2ccccc2)cc1` [Example 10, 2-(4-Fluorobenzyl)-5-(4-methylsulfonyl)phenyl-4-phenyl-2H-pyridazin-3-one], the half-maximal inhibitory concentration (IC50) at COX-2 [1] is 0.9 µM; at COX-2 [2], 0.17 µM; on COX-1 [3], > 10 µM.

Take `COC(=O)Cn1ncc(-c2ccc(S(C)(=O)=O)cc2)c(-c2ccccc2)c1=O` [Example 11, 2-Carbomethoxymethyl-5-(4-methylsulfonyl)phenyl-4-phenyl-2H-pyridazin-3-one]: the concentration for half-maximal inhibition (IC50) is 9.2 µM at COX-2 [1], 5 µM against COX-2 [2] and > 10 µM at COX-1 [3].

In the case of `CS(=O)(=O)c1ccc(-c2cnn(Cc3ccccc3)c(=O)c2-c2ccc(F)cc2)cc1` [Example 12, 2-Benzyl-4-(4-fluorophenyl)-5-(4-methylsulfonyl)phenyl-2H-pyridazin-3-one], the IC50 on COX-1 [3] lay within 3 to 10 µM.
